From patent US20260001928A1 (CORTERIA PHARMACEUTICALS, priority 2022, published 2026)
pEC50: −log10 of the molar value. *1 amine or outer side, *2 acyl side, *3 side chain or, on linkers, in order; H or OH if unused. Where a SMILES comes first, the peptide text is derived from it. Side-chain parts run from the residue outwards. [ ]: non-standard residue; d: D form. The star is where a group is joined. C20 diacid = O=C(O)CCCCCCCCCCCCCCCCCCC(=O)*; C16 diacid = O=C(O)CCCCCCCCCCCCCCC(=O)*; γGlu = O=C(O)[C@H](CCC(=O)[*:2])N[*:1]; AEEA = NCCOCCOCC(=O)O; Aib = CC(C)(N)C(=O)O

Legend:
[1] = Chemical stability in buffer (pH 7.4 / pH 4.5), % purity loss; type: physicochemical; conditions: 100 mM phosphate buffer pH 7.4; 40° C. vs 5° C.; 14 or 28 days
Outline: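 Compounds dissolved at 10 mg/mL target in 100 mM phosphate (pH 7.4) or 100 mM acetate (pH 4.5) buffer for 1 h at room temperature, then centrifuged. Diluted supernatant stored at 5 °C or 40 °C for 14 or 28 days; % purity loss by LC-UV.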

Sprague Dawley rats = assay: Effect on systolic blood pressure, telemetry in Sprague Dawley rats; type: in vivo, rat; conditions: 0.1 mg/kg SC; for Systolic blood pressure (Mean) % change from baseline, 8 h / Systolic blood pressure (Mean) % change from baseline, 12 h / Systolic blood pressure (Mean) % change from baseline, 24 h: n=2; for Duration of action: last time point with an effect on BP still observed
Outline: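 Sprague Dawley rats with abdominal-aorta telemetry catheters, recovered ≥10 days, received 0.1 mg/kg SC of compound or vehicle. Systolic pressure recorded 1 h pre-dose as baseline, then continuously up to 48 hours, expressed as % change from baseline; duration of action is last time point with a BP effect (n=2).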

CFR1R receptor = biological target: T1, CFR1R receptor (Homo sapiens, UniProt P34998); assay: Activity at anti-target CFR1R receptor, cAMP assay in CRF1R-overexpression CHO-K1 cells; type: cell-based; conditions: 100% = Sauvagine at 100 nM; for pEC50: cAMP
T1 construct: host or cells: CHO-K1 (clone 2)
T1 sequence (P34998 24-415): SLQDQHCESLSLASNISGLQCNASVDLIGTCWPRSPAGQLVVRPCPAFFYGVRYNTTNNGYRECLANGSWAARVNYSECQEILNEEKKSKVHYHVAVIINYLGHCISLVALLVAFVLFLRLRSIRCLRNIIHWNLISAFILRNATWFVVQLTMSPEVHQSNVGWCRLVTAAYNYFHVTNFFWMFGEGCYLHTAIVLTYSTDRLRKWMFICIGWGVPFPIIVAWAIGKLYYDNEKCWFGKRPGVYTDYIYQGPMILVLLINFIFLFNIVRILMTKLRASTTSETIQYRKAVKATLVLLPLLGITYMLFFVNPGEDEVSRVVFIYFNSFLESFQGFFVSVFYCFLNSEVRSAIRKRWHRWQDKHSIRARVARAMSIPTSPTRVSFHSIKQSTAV
Outline: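 Run as for the TeloHAEC line, except the full-activation control well received Sauvagine (100 nM) and final density was 4000 cells/well. Cells from clone 2 came from frozen aliquots of near-confluent cultures.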

human CRF2a receptor = biological target: T2, human CRF2a receptor (Homo sapiens, UniProt Q13324); assay: Activity at human CRF2a receptor, cAMP functional assay in TeloHEAC cells; type: cell-based; conditions: TeloHEAC cells stably expressing human CRF2a receptor, relative to urocortin 2 (100 nM = 100%)
T2 construct: expressed in transfected cells; host or cells: TeloHEAC cells
T2 sequence (Q13324 1-411): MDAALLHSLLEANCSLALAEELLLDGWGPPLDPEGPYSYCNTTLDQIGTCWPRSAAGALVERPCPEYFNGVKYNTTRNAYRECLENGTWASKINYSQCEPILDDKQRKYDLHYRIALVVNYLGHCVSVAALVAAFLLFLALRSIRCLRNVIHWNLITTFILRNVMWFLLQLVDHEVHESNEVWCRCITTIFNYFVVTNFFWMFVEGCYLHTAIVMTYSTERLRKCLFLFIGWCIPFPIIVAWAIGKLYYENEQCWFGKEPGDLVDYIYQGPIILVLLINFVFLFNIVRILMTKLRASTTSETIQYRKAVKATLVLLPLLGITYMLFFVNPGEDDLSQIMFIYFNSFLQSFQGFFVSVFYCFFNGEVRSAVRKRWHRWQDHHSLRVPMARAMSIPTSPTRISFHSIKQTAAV
Outline: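 TeloHEAC cells stably expressing human CRF2a (10000 cells/well, suspended in HBSS/20 mM HEPES with 2 mM IBMX) were exposed to compounds for 30 min at 37 °C. cAMP was read as the 665/620 nm fluorescence ratio after 1 h at room temperature. EC50 was derived relative to 100 nM urocortin 2, set as 100%.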

[2] = In vitro subcutaneous tissue supernatant (SCts) stability and metabolite identification, rat; type: in vitro ADME; parameters: remaining at 2 h: dose or concentration left out as unconfirmed; conditions: male, Sprague Dawley; rat subcutaneous tissue supernatant (SCts), 37° C, 2 h

| Buffer stability pH 7.4 % purity loss [1] | Emax (% I) (CFR1R receptor) | pEC50 (CFR1R receptor) | pEC50 (human CRF2a receptor) | remaining at 2 h [2] | SMILES | Systolic blood pressure (Mean) % change from baseline, 8 h (Sprague Dawley rats) | Systolic blood pressure (Mean) % change from baseline, 12 h (Sprague Dawley rats) | Systolic blood pressure (Mean) % change from baseline, 24 h (Sprague Dawley rats) | Duration of action (Sprague Dawley rats) |
| --- | --- | --- | --- | --- | --- | --- | --- | --- | --- |
| 0/nd ^ % | 0 % I | < 6.60 | 9.60 | 79% | CC[C@H](C)[C@H](NC(C)=O)C(=O)N[C@H](C(=O)N[C@@H](CC(C)C)C(=O)N[C@@H](CO)C(=O)N[C@@H](CC(C)C)C(=O)N[C@@H](CC(=O)O)C(=O)N[C@@H](C(=O)N1CCC[C@H]1C(=O)N[C@H](C(=O)N[C@@H](CCCCN)C(=O)N[C@@H](CC(C)C)C(=O)N[C@@H](CCCCNC(=O)CC[C@H](NC(=O)CCCCCCCCCCCCCCC(=O)O)C(=O)O)C(=O)N[C@@H](CCCCN)C(=O)N[C@H](C(=O)N[C@@H](CC(C)C)C(=O)N[C@@H](CC(C)C)C(=O)N[C@@H](CCC(=O)O)C(=O)N[C@@H](CCC(N)=O)C(=O)N[C@@H](CCC(=O)O)C(=O)N[C@@H](CCCCN)C(=O)N[C@@H](CCC(N)=O)C(=O)N[C@@H](CCCCN)C(=O)N[C@@H](CCCCN)C(=O)N[C@@H](CCC(N)=O)C(=O)N[C@@H](CCCNC(=N)N)C(=O)N[C@@H](CCC(=O)O)C(=O)N[C@@H](CCC(N)=O)C(=O)N[C@@H](C)C(=O)N[C@@H](CCC(=O)O)C(=O)N[C@H](C(=O)N[C@@H](CC(N)=O)C(=O)NC(C)(C)C(=O)N[C@@H](CCC(N)=O)C(=O)N[C@H](C(=O)N[C@@H](CC(C)C)C(=O)N[C@@H](C)C(=O)N[C@@H](CCC(N)=O)C(=O)N[C@H](C(N)=O)C(C)C)[C@@H](C)CC)[C@@H](C)O)[C@@H](C)CC)[C@@H](C)CC)C(C)C)C(C)C [compound 40] (Ac-IVLSLD[dV]PIKLK([γGlu-C16 diacid])KILLEQEKQKKQREQAETN[Aib]QILAQV-NH2) | −30% | −18% | 7% | 23 h |
| 0.0/Not Tested % | 14 % I | < 6.60 | 9.19 | 72% | CC[C@H](C)[C@H](NC(C)=O)C(=O)N[C@H](C(=O)N[C@@H](CC(C)C)C(=O)N[C@@H](CO)C(=O)N[C@@H](CC(C)C)C(=O)N[C@@H](CC(=O)O)C(=O)N[C@@H](C(=O)N1CCC[C@H]1C(=O)N[C@H](C(=O)N[C@@H](CCCCN)C(=O)N[C@@H](CC(C)C)C(=O)N[C@@H](CCCCNC(=O)CC[C@H](NC(=O)CCCCCCCCCCCCCCC(=O)O)C(=O)O)C(=O)N[C@@H](CCCCN)C(=O)N[C@H](C(=O)N[C@@H](CC(C)C)C(=O)N[C@@H](CC(C)C)C(=O)N[C@@H](CCC(=O)O)C(=O)N[C@@H](CCC(N)=O)C(=O)N[C@@H](CCC(=O)O)C(=O)N[C@@H](C)C(=O)N[C@@H](CCC(N)=O)C(=O)N[C@@H](CCCCN)C(=O)N[C@@H](CCCCN)C(=O)N[C@@H](CCC(N)=O)C(=O)N[C@@H](CCCNC(=N)N)C(=O)N[C@@H](CCC(=O)O)C(=O)N[C@@H](CCC(N)=O)C(=O)N[C@@H](C)C(=O)N[C@@H](CCC(=O)O)C(=O)N[C@H](C(=O)N[C@@H](CC(N)=O)C(=O)NC(C)(C)C(=O)N[C@@H](CCC(N)=O)C(=O)N[C@H](C(=O)N[C@@H](CC(C)C)C(=O)N[C@@H](C)C(=O)N[C@@H](CCC(N)=O)C(=O)N[C@H](C(N)=O)C(C)C)[C@@H](C)CC)[C@@H](C)O)[C@@H](C)CC)[C@@H](C)CC)C(C)C)C(C)C [compound 165] (Ac-IVLSLD[dV]PIKLK([γGlu-C16 diacid])KILLEQEAQKKQREQAETN[Aib]QILAQV-NH2) | −30% | −20% | 2% | 23 h |
| 0.0/Not Tested % | 10 % I | < 6.60 | 9.55 | 65% | CC[C@H](C)[C@H](NC(C)=O)C(=O)N[C@H](C(=O)N[C@@H](CC(C)C)C(=O)N[C@@H](CO)C(=O)N[C@@H](CC(C)C)C(=O)N[C@@H](CC(=O)O)C(=O)N[C@@H](C(=O)N1CCC[C@H]1C(=O)N[C@H](C(=O)N[C@@H](CCCCN)C(=O)N[C@@H](CC(C)C)C(=O)N[C@@H](CCCCNC(=O)COCCOCCNC(=O)CC[C@H](NC(=O)CCCCCCCCCCCCCCCCCCC(=O)O)C(=O)O)C(=O)N[C@@H](CCCCN)C(=O)N[C@H](C(=O)N[C@@H](CC(C)C)C(=O)N[C@@H](CC(C)C)C(=O)N[C@@H](CCC(=O)O)C(=O)N[C@@H](CCC(N)=O)C(=O)N[C@@H](CCC(=O)O)C(=O)N[C@@H](CCCCN)C(=O)N[C@@H](CCC(N)=O)C(=O)N[C@@H](CCCCN)C(=O)N[C@@H](CCC(=O)O)C(=O)N[C@@H](CCC(N)=O)C(=O)N[C@@H](CCCNC(=N)N)C(=O)N[C@@H](CCC(=O)O)C(=O)N[C@@H](CCC(N)=O)C(=O)N[C@@H](C)C(=O)N[C@@H](CCC(=O)O)C(=O)N[C@H](C(=O)N[C@@H](CC(N)=O)C(=O)NC(C)(C)C(=O)N[C@@H](CCC(N)=O)C(=O)N[C@H](C(=O)N[C@@H](CC(C)C)C(=O)N[C@@H](C)C(=O)N[C@@H](CCC(N)=O)C(=O)N[C@H](C(N)=O)C(C)C)[C@@H](C)CC)[C@@H](C)O)[C@@H](C)CC)[C@@H](C)CC)C(C)C)C(C)C [compound 231] (Ac-IVLSLD[dV]PIKLK([AEEA-γGlu-C20 diacid])KILLEQEKQKEQREQAETN[Aib]QILAQV-NH2) | −3% | −3% | −12% | >24 h |
